The values that follow come from patent US7038112B2, “Fatty acid elongases” (Miami University, priority 1997, dated 2006).

The target of one experiment is T1, EL2 (Arabidopsis thaliana, UniProt Q9SYZ0).
T1 construct: Yeast cultures containing full-length EL1 in λYES and full-length EL2 in pYEUra3 were grown in the presence of galactose or glucose; made in house; microsomes of galactose-induced cells
T1 sequence (Q9SYZ0 36-493): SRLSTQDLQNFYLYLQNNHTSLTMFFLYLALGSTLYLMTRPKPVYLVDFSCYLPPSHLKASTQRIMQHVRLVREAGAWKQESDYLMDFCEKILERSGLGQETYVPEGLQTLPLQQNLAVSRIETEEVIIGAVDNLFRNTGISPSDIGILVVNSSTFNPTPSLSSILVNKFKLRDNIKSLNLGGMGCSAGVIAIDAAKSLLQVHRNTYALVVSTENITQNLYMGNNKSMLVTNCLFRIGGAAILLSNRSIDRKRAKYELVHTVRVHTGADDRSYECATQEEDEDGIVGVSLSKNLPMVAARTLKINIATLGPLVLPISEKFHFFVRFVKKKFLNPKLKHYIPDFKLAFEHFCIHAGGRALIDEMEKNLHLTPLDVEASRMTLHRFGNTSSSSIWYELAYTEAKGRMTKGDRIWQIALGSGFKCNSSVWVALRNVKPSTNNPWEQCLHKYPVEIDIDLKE
Put plainly: 18:0-CoA elongation by EL2 microsomes in standard reaction mix containing cerulenin. In kind it is biochemical. On the procedure: (§1) Fatty acid elongase activity was measured essentially as described in Hlousek-Radojcic, A. et al., Plant J. 8:803–809 (1995). Briefly, the standard elongation reaction mix contained 80 mM Hepes-KOH, pH 7.2, 20 mM MgCl2, 500 μM NADPH, 1 mM ATP, 100 μM malonyl-CoA, 10 μM CoA-SH and 15 μM radioactive acyl-CoA substrate. The radiolabeled substrate was either [1^−14C]18:1-CoA (50 uCi μmol^−1), [1^−14C]18:0-CoA (55 uCi μmol^−1), or [1^−14C]16:0-CoA (54 uCi μmol^−1). The reaction was initiated by the addition of yeast microsomes (5 μg protein) and the mixture incubated at 30° C. for the indicated period of time. The final reaction volume was 25 μl.
(§2) Methyl esters of the acyl-CoA elongation products were prepared as described in Example 1. Methyl esters were separated on reversed phase silica gel KC18 TLC plates (Whatman, […] thick), quantified by phosphorimaging, and analyzed on by ImageQuant software (Molecular Dynamics, Inc., Sunnyvale, Calif.). The detection limit for each product is about 0.001 nanomoles per min. per mg microsomal protein, depending on the phosphorimage exposure time.
(§3) In a third experiment, microsomes from induced and uninduced cultures containing EL1 or EL2 were incubated in the absence of cofactors involved in the β-ketoacyl condensation reaction. Cultures were induced and microsomes were prepared as described in Example 2. In vitro assays were carried out as described in Example 2, except that either ATP, CoASH or both were omitted from the enzyme reaction mixture.

The target of another experiment is T2, EL1 (Arabidopsis thaliana, UniProt Q9MAM3).
T2 construct: Yeast cultures containing full-length EL1 in λYES and full-length EL2 in pYEUra3 were grown in the presence of galactose or glucose; made in house; microsomes of galactose-induced cells
Kind of experiment: 18:0-CoA elongation by EL1 microsomes in standard reaction mix containing cerulenin. It is filed as biochemical. As to the method: as §1, §2, §3

[1] abbreviates: EL2, galactose-induced, +Cer 0.01 mM cerulenin, average of two experiments.
The mark [2] stands for this setting: EL1, galactose-induced, +Cer 0.01 mM cerulenin, average of two experiments.

T2 sequence (Q9MAM3 9-528 limits assumed): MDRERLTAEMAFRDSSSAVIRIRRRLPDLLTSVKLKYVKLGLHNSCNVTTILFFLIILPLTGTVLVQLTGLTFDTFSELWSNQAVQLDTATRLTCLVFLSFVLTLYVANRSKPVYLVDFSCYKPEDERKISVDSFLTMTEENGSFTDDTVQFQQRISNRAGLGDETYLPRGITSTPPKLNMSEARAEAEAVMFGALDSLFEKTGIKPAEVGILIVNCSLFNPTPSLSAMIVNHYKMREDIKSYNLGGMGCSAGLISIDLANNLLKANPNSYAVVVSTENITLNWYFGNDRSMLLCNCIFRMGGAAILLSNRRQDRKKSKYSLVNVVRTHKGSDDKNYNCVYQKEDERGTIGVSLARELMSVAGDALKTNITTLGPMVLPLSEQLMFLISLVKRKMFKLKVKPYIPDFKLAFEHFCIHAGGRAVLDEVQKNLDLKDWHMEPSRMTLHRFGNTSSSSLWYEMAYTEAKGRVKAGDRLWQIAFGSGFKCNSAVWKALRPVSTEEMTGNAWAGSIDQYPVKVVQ

Turning to `C/C=C/C/C=C/CCC(=O)[C@H]1O[C@H]1C(N)=O` [cerulenin], the “inhibition of KAS activity of EL2” value against EL2 (0.01 mM cerulenin) was “does not inhibit”. Besides, at EL2 (setting [1]), the “20:0 product as a percent of total products formed” value is listed as 41.8%, the “22:0 product as a percent of total products formed” value is 16.1%, the “24:0 product as a percent of total products formed” value is 20.4% and the “26:0 product as a percent of total products formed” value came to 21.8%. Besides, the “Total products as a percent of total products formed” value on EL2 (setting [1]) turned out to be 100.0%. On EL1 (0.01 mM cerulenin), the “inhibition of KAS activity of EL1” value was “does not inhibit”. Also, at EL1 (setting [2]), the “20:0 product as a percent of total products formed” value worked out at 46.7%, the “22:0 product as a percent of total products formed” value came to 16.2%, the “24:0 product as a percent of total products formed” value came out at 17.7% and the “26:0 product as a percent of total products formed” value came to 19.4%. On EL1 (setting [2]), the “Total products as a percent of total products formed” value came out at 100.0%.
